# Data published in patent publication US7884120B2, “2,4,5-trisubstituted imidazoles and their use as anti-microbial agents” (Lorus Therapeutics Inc., priority 2002, dated 2011).
# Test system: Candida albicans (ATCC 24433)
# Assay: In vitro anti-fungal activity, microdilution against Candida albicans
# Assay type: cell-based
# Details: ATCC24433, C. albicans ATCC 24433, compound 25 μg/ml, 24 h, read-out: Inhibition (%) after 24 h
# Procedure: A microdilution method was used to determine the anti-fungal activity of different test compounds against Candida albicans (ATCC 24433) at 25 μg/ml. RPMI-1640 broth is recommended as the medium of choice for susceptibility testing of C. albicans (NCCLS, 2002; Document M27-A2) and was used in this study. The broth was buffered to pH 7.0 and then sterilized using a 250 ml vacuum driven disposable 0.45 um filtration system.
# C. albicans was sub-cultured from a −80° C. stock onto Sabouraud dextrose agar and incubated for 24-48 hrs at 37° C. The fungi inoculum was prepared by picking five colonies of ˜1 mm in diameter from 24-48 hr old cultures. The colonies were then suspended in 5 ml of sterile normal saline (8.5 g/L NaCl; 0.85% saline) diluted 1:50 and further diluted 1:20 with medium to obtain two-fold inoculum (1-5×10^3 cfu/ml). […] The microtitre plates were then sealed in plastic bags and incubated at 35° C. for 24-48 hrs in an ambient air incubator with shaking at 250 RPM.
# Inhibition of visible growth of C. albicans in the microtitre plate wells was assessed by the unaided eye and confirmed by OD600 reading. […] The MIC values of compounds with significant activity are also included.
row,Structure (SMILES),inhibition at 25 µg/mL [%]
1,CC(=O)n1c(-c2c(C)n(C(C)=O)c3ccccc23)nc(-c2ccccc2)c1-c1ccccc1 [Compound 5],0

# Same assay, conditions: ATCC24433, C. albicans ATCC 24433, compound 25 μg/ml, 48 h, read-out: Inhibition (%) after 48 h
row,Structure (SMILES),inhibition at 25 µg/mL [%]
1,CC(=O)n1c(-c2c(C)n(C(C)=O)c3ccccc23)nc(-c2ccccc2)c1-c1ccccc1 [Compound 5],0

# Test system: MRSA 1B-387
# Assay: In vivo anti-bacterial activity, ICR mice inoculated I.P. with MRSA, oral treatment
# Details: Staphylococcus aureus
# Procedure: For in vivo studies, groups of 5-10 female ICR mice (6-7 weeks) were inoculated intraperitonially with 3-8×10^7 CFU MRSA 1B-387 per mouse in 400 μl of 5% mucin. The test compounds at concentrations of 50 or 100 mg/kg were administered orally immediately after the bacterial inoculation and again 3 hours later. The selected dosages were administered twice daily throughout the experiment. The efficacy of the treatment was evaluated by comparison of mortality between the experimental and control groups (Table 5).
row,Structure (SMILES),responders at 100 mg/kg [%]
1,CC(=O)n1c(-c2c(C)n(C(C)=O)c3ccccc23)nc(-c2ccccc2)c1-c1ccccc1 [Compound 5],20

# Same assay, conditions: Staphylococcus aureus, read-out: Survival %
row,Structure (SMILES),responders at 100 mg/kg [%]
1,CC(=O)n1c(-c2c(C)n(C(C)=O)c3ccccc23)nc(-c2ccccc2)c1-c1ccccc1 [Compound 5],20

# Test system: S. aureus, MRSA 1A-218, 1A-318, 1B-374, 1B-315, 1B-185, 1B387 and MSSA ATCC-6538, ATCC-29213
# Assay: MIC by standard microdilution method against S. aureus (MRSA and MSSA strains)
# Assay type: cell-based
# Details: Staphylococcus aureus; against all 8 strains of S. aureus tested except where indicated; microdilution, Ca-MHB, 35° C., 24 hr; read-out: MIC
# Procedure: A standard microdilution method (NCCLS, 2000; Document M7-A5) was used to determine the minimum inhibitory concentrations (MICs) against S. aureus, methicillin-resistant strains (MRSA); 1A-218, 1A-318, 1B-374, 1B-315, 1B-185, 1B387 (Simor et al. 1999 Can Commun Dis Rep; 25:105-108) and methicillin-sensitive strains (MSSA); ATCC-6538 and ATCC-29213. The MICs of some compounds were also determined against other Gram-positive bacteria: Enterococcus faecium (ATCC 51559), Enterococcus faecalis (ATCC-51299, ATCC-29212) and Staphylococcus epidermidis (ATCC-35983).
# Mueller-Hinton broth (MHB) is recommended as the medium of choice for susceptibility testing of commonly isolated, rapidly growing aerobic organisms such as the Gram-positive bacteria included in this study. A “cation-adjusted Mueller-Hinton broth” (Ca-MHB) was prepared by first preparing standard MHB from a dehydrated base as recommended by the manufacturer.
# Single colonies from fresh agar plates of the different bacterial cultures were sub-cultured overnight in 3 ml of Tryptic soy broth (TSB) at 37° C. with shaking at 250 RPM. After 18-20 hours of incubation, the absorbance at λ=600 nm (OD600) were determined for each culture and adjusted to a final OD600=0.1 (4.2×10^7 cfu/ml). Bacterial suspensions were then diluted 1:200 in sterile Ca-MHB for the in vitro susceptibility test, with each well of the microtitre plate containing approximately 2×10^5 cfu/ml.
# Stock solutions of the different test compounds were prepared at concentrations of 1,280 μg/ml, 640 μg/ml, or 320 μg/ml in 50% DMSO (dimethyl sulfoxide). Serial two-fold dilutions were then prepared in 50% DMSO (the working concentrations were 1:10 of the stock concentrations in 100 μl culture suspensions). The filled microtitre plates were sealed in plastic bags and incubated at 35° C. for 24 hr in an ambient air incubator with shaking at 250 RPM. MIC values were determined as the lowest concentration where complete inhibition of the visible bacterial growth was observed by the unaided eye and confirmed by the measurement of the optical density (OD600).
row,Structure (SMILES),MIC [mg/L]
1,CC(=O)n1c(-c2c(C)n(C(C)=O)c3ccccc23)nc(-c2ccccc2)c1-c1ccccc1 [Compound 5],> 128
2,COc1ccc(-c2nc(-c3c(C)[nH]c4ccccc34)[nH]c2-c2ccc(OC)cc2)cc1 [Compound 9],8
3,Cc1[nH]c2ccccc2c1-c1nc(-c2ccccn2)c(-c2ccccn2)[nH]1 [Compound 15],> 128
4,Cc1[nH]c2ccccc2c1-c1nc(-c2cccc(Cl)c2)c(-c2cccc(Cl)c2)[nH]1 [Compound 21],8 to 16
5,Brc1ccc2[nH]cc(-c3nc(-c4cccs4)c(-c4cccs4)[nH]3)c2c1 [Compound 26],2
6,Cc1[nH]c2ccccc2c1-c1nc(-c2ccncc2)c(-c2ccc(F)cc2)[nH]1 [Compound 27],32 to 64
7,Fc1ccc(-c2[nH]c(-c3c[nH]c4ccc(Br)cc34)nc2-c2ccncc2)cc1 [Compound 28],2
8,Fc1ccc(-c2[nH]c(-c3c[nH]c4ccccc34)nc2-c2ccccc2)cc1 [Compound 37],> 128
9,Cc1[nH]c2ccccc2c1-c1nc(-c2ccc(Oc3ccccc3)cc2)c(-c2ccc(Oc3ccccc3)cc2)[nH]1 [Compound 38],> 128
10,Brc1ccc2[nH]cc(-c3nc(-c4ccc(Oc5ccccc5)cc4)c(-c4ccc(Oc5ccccc5)cc4)[nH]3)c2c1 [Compound 39],> 128
11,Cc1[nH]c2ccccc2c1-c1nc(-c2ccc(-c3ccccc3)cc2)c(-c2ccc(-c3ccccc3)cc2)[nH]1 [Compound 40],> 128
12,Cn1cc(-c2nc3c4ccccc4c4ccccc4c3[nH]2)c2ccccc21 [Compound 47],> 128
13,Brc1ccc2[nH]cc(-c3nc(-c4ccccc4)c(-c4ccc(-c5ccccc5)cc4)[nH]3)c2c1 [Compound 48],4 to 8
14,Brc1ccc2[nH]cc(-c3nc(-c4ccccc4)c(-c4ccc(N5CCCCC5)cc4)[nH]3)c2c1 [Compound 50],> 64
15,Clc1ccc(-c2nc(-c3c[nH]c4ccc(Br)cc34)[nH]c2-c2ccc(-c3ccccc3)cc2)cc1 [Compound 51],16
16,Brc1ccc2[nH]cc(-c3nc4c5cc(I)ccc5c5ccc(I)cc5c4[nH]3)c2c1 [Compound 52],> 64
17,Ic1ccc2c3ccccc3c3[nH]c(-c4c[nH]c5ccccc45)nc3c2c1 [Compound 53],1
18,c1ccc(-c2[nH]c(-c3c[nH]c4ccccc34)nc2-c2ccc3ccccc3c2)cc1 [Compound 55],2
19,Ic1cccc(-c2nc(-c3c[nH]c4ccccc34)[nH]c2-c2cccc(I)c2)c1 [Compound 56],1
20,O=C(O)c1ccc(-c2nc(-c3ccc(Br)cc3)c(-c3ccccc3)[nH]2)cc1 [Compound 59],32
21,Cc1ccc(-c2nc(-c3cccc(O)c3)[nH]c2-c2ccccc2Br)cc1 [Compound 64],4
22,Cc1ccc([N+](=O)[O-])cc1-c1[nH]c(-c2cccc(O)c2)nc1-c1ccccc1 [Compound 67],16
23,COc1ccc(-c2nc(-c3cccc(Cl)c3Cl)c(-c3ccccc3)[nH]2)cc1O [Compound 70],8
24,O=C(O)c1ccc(-c2nc(-c3ccc4c(c3)-c3cc(-c5[nH]c(-c6ccc(C(=O)O)cc6)nc5-c5ccccc5)ccc3C4=O)c(-c3ccccc3)[nH]2)cc1 [Compound 72],0.5 to 2
25,Fc1ccc(-c2nc(-c3ccc4[nH]ccc4c3)[nH]c2-c2ccccc2)cc1 [Compound 76],> 128
26,Cc1[nH]c2ccc([N+](=O)[O-])cc2c1-c1nc(-c2ccc(F)cc2)c(-c2ccccc2)[nH]1 [Compound 77],> 128

# More lines, now with the values ahead:
row,MIC [mg/L],Structure (SMILES)
1,4 to 16,Cc1[nH]c2ccccc2c1-c1nc(-c2ccc(F)cc2)c(-c2ccc(F)cc2)[nH]1 [Compound 7]
2,16,COc1ccccc1-c1nc(-c2c(C)[nH]c3ccccc23)[nH]c1-c1ccccc1OC [Compound 17]
3,2 to 4,Clc1ccc(-c2nc(-c3c[nH]c4ccc(Br)cc34)[nH]c2-c2ccc(Cl)cc2)cc1 [Compound 20]
4,4 to 8,Cc1ccc(-c2nc(-c3c(C)[nH]c4ccccc34)[nH]c2-c2ccc(C)cc2)cc1 [Compound 23]
5,32 to 64,Cc1[nH]c2ccccc2c1-c1nc(-c2cccs2)c(-c2cccs2)[nH]1 [Compound 25]
6,4,c1ccc(-c2ccc(-c3[nH]c(-c4c[nH]c5ccccc45)nc3-c3ccccc3)cc2)cc1 [Compound 49]
7,2 to 4,c1ccc(-c2[nH]c(-c3c[nH]c4ccccc34)nc2-c2cccc3ccccc23)cc1 [Compound 54]
8,16,COc1ccc(-c2nc(-c3ccc(O)cc3)[nH]c2-c2ccc(OC)cc2)cc1 [Compound 57]
9,4,Oc1ccc(-c2nc(-c3ccc(Br)cc3)c(-c3ccccc3)[nH]2)cc1 [Compound 58]
10,64,O=C(O)c1ccc(-c2nc(-c3ccccc3)c(-c3cccc4ccccc34)[nH]2)cc1 [Compound 60]
11,8,Oc1cccc(-c2nc(-c3ccccc3)c(-c3cccc4ccccc34)[nH]2)c1 [Compound 61]
12,2,Oc1cccc(-c2nc(-c3ccc(-c4ccccc4)cc3)c(-c3ccccc3)[nH]2)c1 [Compound 62]
13,2,Oc1ccc(-c2nc(-c3ccc(-c4ccccc4)cc3)c(-c3ccccc3)[nH]2)cc1 [Compound 63]
14,16,O=C(O)c1ccc(-c2nc(-c3ccc(Br)cc3)c(-c3ccc(Br)cc3)[nH]2)cc1 [Compound 65]
15,2,COc1cc(-c2nc(-c3ccc(Cl)cc3)c(-c3ccc(Cl)cc3)[nH]2)cc(OC)c1O [Compound 66]
16,16,Oc1ccc(-c2nc(-c3cccc(Cl)c3Cl)c(-c3ccccc3)[nH]2)cc1O [Compound 69]
17,8,Cc1ccc(C)c(-c2nc(-c3cccc(O)c3)[nH]c2-c2ccccc2)c1 [Compound 71]
18,> 128,COc1ccc(-c2nc(-c3ccccc3)c(-c3ccccc3)[nH]2)c(OC)c1 [Compound 73]
19,> 128,COc1ccc(-c2nc(-c3ccc(F)cc3)c(-c3ccccc3)[nH]2)c(OC)c1 [Compound 74]
20,32,Cc1[nH]c2ccc(N)cc2c1-c1nc(-c2ccc(F)cc2)c(-c2ccccc2)[nH]1 [Compound 75]
21,2,COc1cccc(-c2nc(-c3c[nH]c4ccc(Br)cc34)[nH]c2-c2cccc(OC)c2)c1 [Compound 84]
